This passage reports IC50 and EC50 results from US20240228457A1, “AKT3 MODULATORS” (Georgiamune Inc., priority 2020, published 2024).

The target in one test is T1, Akt3 (Homo sapiens, UniProt Q9Y243).
T1 construct: endogenous in cells; host or cells: human CD4+/CD45RA+/CD25- naive T cells under iTreg induction conditions
T1 sequence (Q9Y243 whole entry): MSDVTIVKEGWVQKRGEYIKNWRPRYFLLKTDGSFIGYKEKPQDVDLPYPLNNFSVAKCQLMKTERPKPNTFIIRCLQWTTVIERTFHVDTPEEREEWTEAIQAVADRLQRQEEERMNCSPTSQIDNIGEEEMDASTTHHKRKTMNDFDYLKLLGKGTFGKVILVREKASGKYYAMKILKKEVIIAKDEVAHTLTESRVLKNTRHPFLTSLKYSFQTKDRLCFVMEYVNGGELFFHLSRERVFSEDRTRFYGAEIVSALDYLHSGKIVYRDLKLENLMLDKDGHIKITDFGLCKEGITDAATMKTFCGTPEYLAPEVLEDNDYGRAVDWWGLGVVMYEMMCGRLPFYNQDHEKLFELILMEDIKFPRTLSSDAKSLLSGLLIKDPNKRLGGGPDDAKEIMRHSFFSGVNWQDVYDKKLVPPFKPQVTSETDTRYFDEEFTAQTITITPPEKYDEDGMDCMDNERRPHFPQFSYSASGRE
The test is described as follows: Akt3 inhibition activity of selected compounds. Format: cell-based.
As a reminder, the IC50 is the concentration at which inhibition is half-maximal. Read a high IC50 as a need for much substance. The molecule `Nc1cc(Nc2ccc(C(=O)Nc3cccc(Nc4ccncc4)c3)cc2)ccn1` [Compound 19, 4-(2-aminopyridin-4-ylamino)-N-(3-(pyridin-4-ylamino)phenyl)benzamide] showed an IC50 of less than 5000 nM.

Consider `O=C(Nc1ccc(Nc2ccncc2)cc1)c1cccc(Nc2ccnc3ccc(F)cc23)c1` [Compound 3, 3-((6-fluoroquinolin-4-yl)amino)-N-(4-(pyridin-4-ylamino)phenyl)benzamide], for which the half-inhibitory concentration (IC50) was less than 2000 nM. Still for that read-out and setting: then `Cc1cc(Nc2ccc(C(=O)Nc3cccc(Nc4ccncc4)c3)cc2)cc(N)n1` [Compound 20, 4-(2-amino-6-methylpyridin-4-ylamino)-N-(3-(pyridin-4-ylamino)phenyl)benzamide], with less than 5000 nM; and `Cc1cccc2nccc(Nc3cccc(C(=O)Nc4ccc(Nc5ccncc5)cc4)c3)c12` [Compound 18, 3-((5-methylquinolin-4-yl)amino)-N-(4-(pyridin-4-ylamino)phenyl)benzamide], with less than 2000 nM; and `Cc1c(Nc2ccc(C(=O)Nc3cccc(Nc4ccncc4)c3)cc2)ccnc1N` [Compound 21, 4-(2-amino-3-methylpyridin-4-ylamino)-N-(3-(pyridin-4-ylamino)phenyl)benzamide], with less than 2000 nM.

The target in a further test is T1, Akt3. Briefly: Akt3 activation activity of selected compounds. The class given is cell-based.
Broadly, the EC50 is the concentration giving half of the maximal effect. Low readings indicate higher potency in that assay, high ones lower potency in that assay. Regarding `N#Cc1ccc2nccc(Nc3cccc(C(=O)Nc4ccc(Nc5ccncc5)cc4)c3)c2c1` [Compound 2, 3-((6-cyanoquinolin-4-yl)amino)-N-(4-(pyridin-4-ylamino)phenyl)benzamide], the EC50 is less than 5 µM.
